Test system: serum ovine somatotropin (oST)
Test: Serum ovine somatotropin (oST) by RIA after subcutaneous injection of GRF compounds in lambs
Format: in vivo
Protocol: Whether lambs (40-45 kg) were injected subcutaneously with the following GRF compounds in a phosphate buffered saline vehicle (pH 7):
10.0 ug/kg recombinant native hGRF (rhGRF)
5.0 ug/kg synthetic native hGRF (shGRF)
5.0 ug/kg [Pro^0, Gly^15, Met^27 ]-hGRF(1-44)-NH2 (aGRF)
There were 4 animals per treatment group and each treatment was repeated 3 times to give a total of 12 samples/time point/treatment. The animals were bled at time 0, 10, 20, 30, 60 and 120 minutes after injection and analyzed for serum ovine somatotropin (oST) by radioimmunoassay (RIA).
Example 4 was repeated using the following treatments:
20.0 ug/kg recombinant native hGRF (rhGRF)
10.0 ug/kg synthetic native hGRF (shGRF)

[1] = 5.0 ug/kg subcutaneous, FIG. 1 (Example 4)
[2] = 10.0 ug/kg subcutaneous, FIG. 2 (Example 5)

Molecule | serum oST concentration at 120 minutes post injection versus time 0 [1] | serum oST concentration at 120 minutes post injection versus time 0 [2] | duration of in vivo biological activity [1] | duration of in vivo bioactivity compared to native GRF [2]
CC[C@H](C)[C@H](NC(=O)[C@H](C)NC(=O)[C@H](CC(=O)O)NC(=O)[C@H](C)NC(=O)[C@@H](N)Cc1ccc(O)cc1)C(=O)N[C@@H](Cc1ccccc1)C(=O)N[C@H](C(=O)N[C@@H](CC(N)=O)C(=O)N[C@@H](CO)C(=O)N[C@@H](Cc1ccc(O)cc1)C(=O)N[C@@H](CCCNC(=N)N)C(=O)N[C@@H](CCCCN)C(=O)N[C@H](C(=O)N[C@@H](CC(C)C)C(=O)NCC(=O)N[C@@H](CCC(N)=O)C(=O)N[C@@H](CC(C)C)C(=O)N[C@@H](CO)C(=O)N[C@@H](C)C(=O)N[C@@H](CCCNC(=N)N)C(=O)N[C@@H](CCCCN)C(=O)N[C@@H](CC(C)C)C(=O)N[C@@H](CC(C)C)C(=O)N[C@@H](CCC(N)=O)C(=O)N[C@@H](CC(=O)O)C(=O)N[C@H](C(=O)N[C@@H](CCSC)C(=O)N[C@@H](CO)C(=O)N[C@@H](CCCNC(=N)N)C(=O)N[C@@H](CCC(N)=O)C(=O)N[C@@H](CCC(N)=O)C(=O)NCC(=O)N[C@@H](CCC(=O)O)C(=O)N[C@@H](CO)C(=O)N[C@@H](CC(N)=O)C(=O)N[C@@H](CCC(N)=O)C(=O)N[C@@H](CCC(=O)O)C(=O)N[C@@H](CCCNC(=N)N)C(=O)NCC(=O)N[C@@H](C)C(=O)N[C@@H](CCCNC(=N)N)C(=O)N[C@@H](C)C(=O)N[C@@H](CCCNC(=N)N)C(=O)N[C@@H](CC(C)C)C(N)=O)[C@@H](C)CC)C(C)C)[C@@H](C)O [native synthetic hGRF, reference compound] | returned to baseline serum oST levels | returned to baseline serum oST levels | – | –
[Pro^0, Gly^15, Met^27 ]-hGRF(1-44)-NH2 | oST concentrations greater than those at time 0 | oST concentrations greater than those at time 0 | prolonged in vivo biological activity | prolonged in vivo bioactivity

— patent US5137872A, “Growth hormone-releasing factor analogs” (Pitman-Moore, Inc., priority 1989, dated 1992)
